# Test system: Myzus persicae, extremely resistant strain (794Jz)
# Assay: Aphid dip test, resistant strain
# Assay type: in vivo
# Conditions: read-out: % mortality corrected for control data
Compound,mortality at 100 ppm [%],mortality at 250 ppm [%],mortality at 40 ppm [%]
"CCC(C)(C)C1=C(O)C(=O)c2ccccc2C1=O [Example 1, 2-(1,1-dimethylpropyl)-3-hydroxynaphthalene-1,4-dione]",10,43,
"CCC(C)(C)C1=C(OC(C)=O)C(=O)c2ccccc2C1=O [Example 2, 2-(1,1-dimethylpropyl)-3-ethanoyloxy-naphthalene-1,4-dione]",17,47,
"CC1(C2=C(O)C(=O)c3ccccc3C2=O)CCCCC1 [Example 25, 2-hydroxy-3-(1'-methylcyclohexyl)-naphthalene-1,4-dione]",27,79,10
"CC(C)(C)C1=C(O)C(=O)c2ccccc2C1=O [Example 3, 2-(t-butyl)-3-hydroxy-naphthalene-1,4-dione]",13,87,10

# Test system: resistant strain of whitefly (Ned 1/2)
# Assay: Whitefly vial test, resistant strain Ned 1/2
# Assay type: in vivo
# Conditions: Bemisia tabaci, 48 h, read-out: BT (Ned 1/2) (LC50)
# Method: Acetone solutions (0.100 ml) of the test compounds were placed in 10 ml glass vials and evaporated with rotation to deposit a film of the compound. Thirty adult whiteflies were placed inside the vial, then after 60 minutes, the treated insects were transferred onto untreated cotton leaf discs which were kept moist on a bed of agar gel. The temperature was maintained at 25°C and mortality assessed after 48 hours. Three replicates were used at each of 5 to 7 dose levels per compound. LC50 values (ppm solution) were calculated by using a computer software package ("Polo-PC available from LeOra Software, Berkeley, California) (See M.R. Cahill and B. Hackett in Proceedings Brighton Crop Protection Conference, 1992). The test was carried out using a susceptible strain of whitefly (SUD-S) which was collected in Sudan in 1978 from cotton.
# The whitefly activity test with (BT (SUD-S)) was repeated using a resistant strain of whitefly (Ned 1/2).
row,Compound,LC50 [µg/mL]
1,"CC(C)(C)C1CCC(C2=C(O)C(=O)c3ccccc3C2=O)CC1 (stereo not drawn) [Compound B, 2-hydroxy-3-(4-t-butylcyclohexyl)-naphthalene-1,4-dione, reference compound]",100
2,"CC1(C2=C(O)C(=O)c3ccccc3C2=O)CCCCC1 [Example 25, 2-hydroxy-3-(1'-methylcyclohexyl)-naphthalene-1,4-dione]",0.1

# Source: EP0802730B1, “PESTICIDAL COMPOUNDS” (BTG INTERNATIONAL LIMITED, priority 1995, dated 1996)
